Experimental data published in patent publication US20170049843A1, “Hepatocyte Growth Factor Mimics as Therapeutic Agents” (WASHINGTON STATE UNIVERSITY, priority 2011, published 2017).
Where two headings read alike, the source gives them in different places. Where a SMILES comes first, the peptide text is derived from it. [ ]: non-standard residue; d: D form. The star is where a group is joined. Hexanoyl = CCCCCC(=O)*; Ahx = NCCCCCC(=O)O

System: MDCK cells
Assay: Augmentation of HGF-dependent cell scattering in MDCK cells
Assay type: cell-based, canine
Method: HGF mimetic activity was typically assessed by one or both of two methods: augmentation of HGF-dependent c-Met phosphorylation in HEK293 cells, or 2) augmentation of HGF-dependent cell scattering in MDCK cells. All the compounds in Family one were tested using the c-Met phosphorylation assay. […]
MDCK cells were grown to 100% confluency on the coverslips in six-well plates and washed twice with PBS. The confluent coverslips were then aseptically transferred to new six well plates containing 900 μl serum free DMEM. Norleual, Hinge peptide, and/or HGF (2.5 ng/ml) were added to appropriate wells. Control wells received PBS vehicle. Plates were incubated at 37° C. with 5% CO2 for 48 hours. Media was removed and cells were fixed with methanol. Cells were stained with Diff-Quik Wright-Giemsa (Dade-Behring, Newark, Del.) and digital images were taken. Coverslips were removed with forceps and more digital images were captured. Pixel quantification of images was achieved using Image J and statistics were performed using Prism 5 and InStat v.3.05.

CCCCCC(=O)N[C@@H](Cc1ccc(O)cc1)C(=O)N[C@H](C(=O)NCCCCCC(N)=O)[C@@H](C)CC [Dihexa, N-hexanoic-Tyr-Ile-(6)-aminohexanoic amide] (Hexanoyl-Tyr-Ile-[Ahx]-NH2)
augmentation of HGF-dependent MDCK cell scattering: stimulate MDCK cell scattering
augmentation of HGF-dependent MDCK cell scattering (listed as N-hexanoyl-Tyr-Ile-(6) aminohexamide): spectacularly augment HGF-dependent MDCK cell scattering
